{"source": "patent US4322420A", "about": "“Method of using 4-anilinoquinazoline derivatives as analgesic and anti-inflammatory agents” (Sankyo Company Limited, priority 1978, dated 1982)", "key": {"[1]": {"system": "carrageenin-induced oedema of the right hind paw", "test": "Test for anti-inflammatory activity (carrageenin-induced paw oedema, oral administration)", "format": "in vivo, Male Wistar-Imamichi rats", "details": "Rattus norvegicus, read-out: ID50 Anti-inflammatory Activity", "method": "Male Wistar-Imamichi rats, each weighing approximately 150 g, were used in these experiments and were divided into groups, each containing 5 animals. Each of the test compounds listed in Table 1 was administered orally, at various doses, to the rats and then, 30 minutes after oral administration,0.05 ml of a 1% w/v carrageenin suspension was subcutaneously injected into the sole of the right hind paw to induce oedema. The volume of the paw was measured both before and 3 hours after injection of the carrageenin by the method of Winder et al [Arch. Int. Pharmacodyn. […] The difference between the volume of the paw before and after injection was defined as the oedema intensity.\n(§1) For both of the above tests, the ID50 was calculated by the method of Litchfield and Wilcoxon [J. Pharmacol. Exptl. Therap."}, "[2]": {"system": "bradykinin-induced nociceptive stimulus", "test": "Test for analgesic activity (bradykinin-induced nociceptive stimulus, oral administration)", "format": "in vivo, female Hartley guinea pigs", "details": "Cavia porcellus, read-out: ID50 Analgesic Activity", "method": "This test employs a bradykinin-induced nociceptive stimulus and is a partially modified version of the test described by Deffenu [J. Pharm. Pharmac. […] The test animals were female Hartley guinea pigs having a body weight of from 350 g to 400 g. The guinea pigs were divided into groups, each group containing from 5 to 10 animals. The test animals were cannulated into the carotid artery retrogradely under the anesthesia induced by intraperitoneal injection of 20 mg/kg of pentobarbital. The guinea pigs were allowed to recover from the anesthesia for at least 3 hours before the tests commenced.\nThe test compounds listed in the following Table 1 were administered orally. Immediately before administration of each test compound and then 15, 30, 60, 90 and 120 minutes after administration, each guinea pig was administered with 0.5 μg of bradykinin through the cannula. Turning of the head or twisting of the front legs upon injection was taken as a sign of nociceptive response. The test compounds were administered at various doses and the inhibition rate was determined accordingly.\nas §1"}, "[3]": {"details": "per os, rats, 0.05 ml of 1% w/v carrageenin 30 min after dosing, paw volume 3 hours after injection, Litchfield and Wilcoxon"}, "[4]": {"details": "per os, guinea pigs, 0.5 μg bradykinin via carotid cannula before and 15, 30, 60, 90 and 120 min after dosing, Litchfield and Wilcoxon"}}, "note": "Read-outs that look alike come from different tables or passages of the source.", "data": [{"compound": "Clc1ccc2c(Nc3ccccc3)ncnc2c1", "note": "[Compound 5, 4-Anilino-7-chloroquinazoline]", "values": [{"measurement": "ED50", "setting": "[1]; [3]", "result": 28, "unit": "mg/kg"}, {"measurement": "ED50", "setting": "[2]; [4]", "result": 25, "unit": "mg/kg"}]}, {"compound": "CN(c1ccccc1)c1ncnc2cc(Cl)ccc12", "note": "[Compound 55, 7-Chloro-4-(N-methylanilino)quinazoline]", "values": [{"measurement": "ED50", "setting": "[1]; [3]", "result": 36, "unit": "mg/kg"}, {"measurement": "ED50", "setting": "[2]; [4]", "result": 50, "unit": "mg/kg"}]}, {"compound": "CC(=O)Oc1ccccc1C(=O)O", "note": "[Aspirin, reference compound]", "values": [{"measurement": "ED50", "setting": "[1]", "result": 145, "unit": "mg/kg"}, {"measurement": "ED50", "setting": "[2]", "result": 280, "unit": "mg/kg"}]}, {"compound": "FC(F)(F)c1ccc2c(Nc3ccccc3)ncnc2c1", "note": "[Compound 17, 4-Anilino-7-trifluoromethylquinazoline]", "values": [{"measurement": "ED50", "setting": "[1]; [3]", "result": 20, "unit": "mg/kg"}, {"measurement": "ED50", "setting": "[2]; [4]", "result": 16.5, "unit": "mg/kg"}]}, {"compound": "CN(c1ccccc1)c1ncnc2cc(C(F)(F)F)ccc12", "note": "[Compound 73, 4-(N-Methylanilino)-7-trifluoromethylquinazoline]", "values": [{"measurement": "ED50", "setting": "[1]; [3]", "result": 15.5, "unit": "mg/kg"}, {"measurement": "ED50", "setting": "[2]; [4]", "result": 31, "unit": "mg/kg"}]}, {"compound": "Cc1cccc(Nc2ccccc2C(=O)O)c1C", "note": "[Mefenamic acid, reference compound]", "values": [{"measurement": "ED50", "setting": "[1]; [3]", "result": 50, "unit": "mg/kg"}, {"measurement": "ED50", "setting": "[2]; [4]", "result": 72, "unit": "mg/kg"}]}]}
